2 molecules from patent US10071064B2, “Tincture for infusing flavonoids and methods of use” (Heart Healthy Spirits, LLC, priority 2014, dated 2018) can be followed below.

Data set [1] is described as follows: Near-saturated concentration of resveratrol in ethanol. Type of data set: physicochemical. The note with it: 25° C. How it is done: To deliver a 25 mg dose, 0.60 mL of tincture is required regardless of volume of beverage.
The nature of data set [2]: Free trans-resveratrol in beverages after adding trans-resveratrol powder, 10 micron filtered (HPLC/(+)ESI-MS/MS and HPLC/UV). Type of data set: physicochemical. The source says:
All beverages receiving the powder are thoroughly mixed. […] A few milliliters of each beverage are transferred to amber-colored sample vials. Samples are stored from each beverage in a refrigerator for analysis.

SMILES strings stand for the structures.

Turning to `Oc1ccc(/C=C/c2cc(O)cc(O)c2)cc1` [resveratrol, trans-resveratrol], in data set [1], the “concentration of concentrated (near-saturated) tincture” value was 42.0 mg/mL.

Take `Oc1ccc(/C=C/c2cc(O)cc(O)c2)cc1` [trans-resveratrol powder, trans-resveratrol]: the “appearance on adding powder to beverage” value in data set [2] (25 mg powder in a serving volume, all beverages) was “appears to suspend in solution forming a cloudy layer”. Besides, in data set [2] (25 mg powder in alcoholic beverages (red wine, white wine, beer, spirits), 10 micron filtered), the “amount of bioavailable (free) resveratrol” value is “below the minimum detection limits of the devices”. Besides, the “measurable concentrations of free trans-resveratrol” value in data set [2] (25 mg powder in non-alcoholic beverages (energy drink, sodas, orange juice), 10 micron filtered) was “none of the non-alcoholic beverages (energy drink, sodas, and orange juice) receiving the powder show any measurable concentrations of trans-resveratrol”.
